# Data published in US10167315B2, “Peptoids and methods for treating Alzheimer's disease” (THE BOARD OF TRUSTEES OF THE UNIVERSITY OF ARKANSAS, priority 2015, dated 2019).
# Where a SMILES comes first, the peptide text is derived from it. [ ]: non-standard residue; d: D form. N(1S-Me-propyl)Gly = CC[C@H](C)NCC(=O)O; Nspe = C[C@H](NCC(=O)O)c1ccccc1; Nphe = O=C(O)CNCc1ccccc1; NPrGly = CCCNCC(=O)O; Nlys = NCCCCNCC(=O)O
# Experiments:
# Aβ40 [1] = target: T1, Aβ40 (Homo sapiens, UniProt P05067); assay: Aβ40 aggregation assay assessed by dot blot analysis with fibril specific OC antibody; format: biochemical; conditions: 100 μM peptoid, 20 μM Aβ40 monomer; for lag time extension (dot blot, OC antibody), FIG. 3 legend: mean±SEM, n=3
# T1 construct: purchased Anaspec, Inc
# T1 sequence (P05067 672-711 limits assumed): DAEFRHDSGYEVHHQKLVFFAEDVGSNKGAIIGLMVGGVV
# Protocol: (§1) Aβ40 was dissolved in cold 1,1,1,3,3-hexafluoro-2-propanol (HFIP) to create a 1 mM solution and was incubated on ice for 60 min. After incubation, the solution was aliquoted into individual silicon-coated vials, and HFIP was allowed to evaporate overnight at room temperature, resulting in a thin protein film that was stored with desiccant at −80° C. until use. Prior to experimentation, protein films were rehydrated with 5 mM NaOH on ice for 5 min, and then 40 mM Tris-HCl (pH 8.0) was added for 10 min on ice for a final concentration of 250 μM NaOH.
# (§2) Aggregation assays were performed with 20 μM rehydrated Aβ40 in 40 mM Tris-HCl (pH 8.0) and 150 mM NaCl. Peptoids were dissolved in DMSO and added at 100 μM such that the final DMSO concentration was 5% (v/v). Assays were performed at 25° C. with agitation on an orbital shaker at 800 rpm.
# In parallel with ThT fluorescence, aggregation assays were also assessed by dot blot analysis. […] Membranes were washed three times with TBS-T and incubated with Aβ fibril specific OC antibody (1:5000 dilution) for 1 h at room temperature with gentle agitation. Membranes were again washed three times with TBS-T. Protein detection for bound OC antibody was performed by binding alkaline phosphatase-conjugated anti-rabbit IgG (1:3000 dilution) for 1 h at room temperature with gentle agitation. Dot blots were developed using nitro blue tetrazolium and 5-bromo-4-chloro-3-indolyl phosphate in TBS-T/MgCl2 until […]. The developing reaction was halted using a 10% acetic acid solution. Dot blots were immediately imaged using a Canon CanoScan 9000F (Tokyo, Japan). Images were analyzed with ImageJ software using the gel lane analysis tool. Dot density was normalized to the density detected at equilibrium for the control and plotted against time. The fold-change in lag time and percent inhibition were assessed as described for ThT fluorescence.
# Aβ40 [2] = target: T1, Aβ40; assay: Nile Red spectroscopy, surface hydrophobicity of Aβ40 aggregates; conditions: 100 μM peptoid, 20 μM Aβ40, equilibrium plateau; n=3-4
# Protocol: as §2
# To monitor peptoid-induced changes in aggregate surface hydrophobicity, which are indicative of changes in aggregate conformation, an aliquot of the aggregation reaction was taken from the equilibrium plateau and combined with 200 μM Nile Red (Life Technologies, Carlsbad, Calif.) at a 10:1 molar ratio (Nile Red:Aβ). Samples were scanned using a PerkinElmer LS 45 Luminescence Spectrometer (excitation at 550 nm and emission from 580-700 nm), and the integrated area under the curve (IAUC) was calculated from 580-700 nm. The IAUC was blank (Nile Red, peptoid) subtracted and normalized to Nile Red measurements performed for the control reaction.
# Aβ40 [3] = target: T1, Aβ40; assay: Transmission electron microscopy of Aβ40 aggregates; conditions: 100 μM peptoid, 20 μM Aβ40, 255 min; for overall number of Aβ40 aggregates (TEM): versus control
# Protocol: Aggregation assays were performed with 20 μM rehydrated Aβ40 in 40 mM Tris-HCl (pH 8.0) and 150 mM NaCl. Peptoids were dissolved in DMSO and added at 100 μM such that the final DMSO concentration was 5% (v/v). Assays were performed at 25° C. with agitation on an orbital shaker at 800 rpm. Monomer aggregation reactions were gridded for transmission electron microscopy (TEM) at 255 min, a time by which the control reaction had reached plateau as observed by ThT fluorescence. A 3 μL sample was placed onto a wax substrate, and a 300 square mesh formvar-carbon supported nickel grid (Electron Microscopy Sciences, Hatfield, Pa.) was inverted onto the sample. After 1 min, the sample was wicked away from the bottom side of the grid using a piece of filter paper. A 3 μL sample of 2% uranyl acetate was then placed onto the wax substrate, and the grid was inverted onto the solution for a period of 45 s. Excess stain was wicked away with a piece of filter paper, and the grids were allowed to dry for a period of 24 h. Imaging was performed using a JEOL-1011 transmission electron microscope (JEOL Ltd., Tokyo, Japan) with an accelerating voltage of 110 kV. Blinded observation of samples with random selection of grid areas was implemented to reduce bias during imaging. Images are the representative of 3 repeated experiments and 3 random sections of the grids.
# Aβ40 [4] = target: T1, Aβ40; assay: Aβ40 aggregation assay monitored via ThT fluorescence; format: biochemical; conditions: 100 μM peptoid, 20 μM Aβ40 monomer; mean±SEM, n=7
# Protocol: as §1, §2
# To monitor aggregation using ThT, an aliquot of the aggregation reaction was taken at varying time points and combined with 12.5 μM ThT at a 5:1 molar ratio (ThT:Aβ). Samples were mixed for 8 s and then scanned with a Shimazdu RF-150 mini fluorometer (excitation at 440±10 nm and emission at 490±10 nm) using an average scan time of 4 s. ThT fluorescence with background (ThT alone) subtraction was normalized to the fluorescence detected at equilibrium within the control reaction, and results were plotted against time. […] The fold-change in the lag time was calculated as the ratio of the lag time observed in the presence of peptoid to that of the control. The equilibrium plateau was determined for both the control and peptoid reactions, and percent inhibition was calculated as the percentage decrease of the equilibrium plateau observed in the presence of peptoid relative to the control.
# Aβ40 [5] = target: T1, Aβ40; conditions: cited from earlier work
# Aβ40 [6] = target: T1, Aβ40; conditions: different Aβ lot; cited from earlier work
SMILES,"decrease in fibrillar aggregates at equilibrium (dot blot, OC antibody) (Aβ40 [1])","fold change in lag time versus the control (dot blot, OC antibody) (Aβ40 [1])","lag time extension (dot blot, OC antibody), FIG. 3 legend (Aβ40 [1])",surface hydrophobicity of Aβ40 aggregates (Nile Red fluorescence IAUC 580-700 nm normalized to control) (Aβ40 [2]),overall number of Aβ40 aggregates (TEM) (Aβ40 [3]),Inhibition of Aβ40 aggregation (reduction in the ThT fluorescence plateau at equilibrium) (Aβ40 [4]),morphology of Aβ40 aggregates formed in the presence of peptoid (TEM) (Aβ40 [3]),"Inhibition of Aβ40 aggregation (ThT), previously reported value (Aβ40 [5])","decrease in fibrillar aggregates (dot blot), previously published data (Aβ40 [6])","fold change in lag time compared to the control (dot blot), previously published data (Aβ40 [6])"
CC[C@H](C)NCC(=O)N(CC(=O)N(CC(=O)N(CC(=O)N(CC(=O)N(CCCCN)CC(=O)N(CC(=O)N(CC(N)=O)[C@@H](C)c1ccccc1)[C@@H](C)CC)[C@@H](C)CC)[C@@H](C)c1ccccc1)[C@@H](C)c1ccccc1)[C@@H](C)c1ccccc1 [JPT1s] (H-[N(1S-Me-propyl)Gly][Nspe][Nspe][Nspe][N(1S-Me-propyl)Gly][Nlys][N(1S-Me-propyl)Gly][Nspe]-NH2),50.5±9.0%,2.2±0.4 fold,2.22±0.28 times that of the control,no significant change in Nile Red fluorescence,reduction in the overall number of aggregates,76.9±4.8%,,,,
CCCN(CC(=O)N(CCC)CC(=O)N(CC(=O)N(CC(=O)N(CCC)CC(=O)N(CC(=O)N(CC(N)=O)Cc1ccccc1)Cc1ccccc1)Cc1ccccc1)Cc1ccccc1)C(=O)CNCCCCN [JPT1a] (H-[Nlys][NPrGly][NPrGly][Nphe][Nphe][NPrGly][Nphe][Nphe]-NH2),72.6±4.5%,< 0.50 fold,< 0.42 times that of the control,significantly increased surface hydrophobicity,reduction in the overall number of aggregates,85.6±4.8%,"circular, bird nest-like morphology",,,
CC[C@H](C)N(CC(=O)N(CC(=O)N(CC(=O)N(CC(=O)N(CC(=O)N(CC(=O)N(CC(N)=O)[C@@H](C)c1ccccc1)[C@@H](C)c1ccccc1)[C@@H](C)CC)[C@@H](C)c1ccccc1)[C@@H](C)c1ccccc1)[C@@H](C)CC)C(=O)CNCCCCN [JPT1] (H-[Nlys][N(1S-Me-propyl)Gly][N(1S-Me-propyl)Gly][Nspe][Nspe][N(1S-Me-propyl)Gly][Nspe][Nspe]-NH2),46.0±11.4%,2.7±0.8 fold,2.67±0.83 times that of the control,no significant change in Nile Red fluorescence,reduction in the overall number of aggregates,83.1±4.8%,small aggregates with no extensive branching,81.2±4.4%,63.7±9.2%,< 0.31 fold
